From article PMC9584906, “Cryo-EM structures of thermostabilized prestin provide mechanistic insights underlying outer hair cell electromotility” (Nature Communications, 2022)

Experiments:
[1] = target: T1, HgPres (naked mole-rat prestin) (Heterocephalus glaber, UniProt A0AAX6NYL9); test: whole-cell nonlinear capacitance (NLC); format: cell-based; settings: 10 mM salicylate in bath; HEK293T cells; room temperature; pH 7.3
T1 construct: gene Slc26a5
T1 sequence (A0AAX6NYL9 1-744): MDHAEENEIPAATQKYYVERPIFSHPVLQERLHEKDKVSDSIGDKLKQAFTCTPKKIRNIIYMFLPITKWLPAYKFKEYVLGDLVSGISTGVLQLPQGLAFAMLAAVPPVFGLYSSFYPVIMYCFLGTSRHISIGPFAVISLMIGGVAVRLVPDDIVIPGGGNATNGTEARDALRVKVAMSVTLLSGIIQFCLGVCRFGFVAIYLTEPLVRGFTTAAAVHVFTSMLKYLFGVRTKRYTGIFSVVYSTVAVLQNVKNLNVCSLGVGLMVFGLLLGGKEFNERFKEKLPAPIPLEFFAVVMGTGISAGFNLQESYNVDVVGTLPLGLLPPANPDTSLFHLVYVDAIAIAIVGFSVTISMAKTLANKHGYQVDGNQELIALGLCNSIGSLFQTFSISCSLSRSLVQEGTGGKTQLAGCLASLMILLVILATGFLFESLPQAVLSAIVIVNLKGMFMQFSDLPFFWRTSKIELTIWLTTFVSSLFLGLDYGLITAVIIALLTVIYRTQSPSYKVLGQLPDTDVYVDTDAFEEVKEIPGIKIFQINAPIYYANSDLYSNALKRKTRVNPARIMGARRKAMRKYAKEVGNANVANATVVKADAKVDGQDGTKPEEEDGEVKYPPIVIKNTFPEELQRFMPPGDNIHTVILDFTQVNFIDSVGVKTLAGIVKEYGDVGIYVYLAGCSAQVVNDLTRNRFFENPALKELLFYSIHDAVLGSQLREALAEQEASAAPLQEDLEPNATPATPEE

[2] = target: T2, hPres (human prestin, SLC26A5) (Homo sapiens, UniProt P58743); test: isothermal titration calorimetry; format: binding
T2 construct: full-length; C-terminal TEV-FLAG-EGFP tag cleaved off; HEK293S GnTI- (BacMam); digitonin micelles
T2 sequence (P58743 1-744): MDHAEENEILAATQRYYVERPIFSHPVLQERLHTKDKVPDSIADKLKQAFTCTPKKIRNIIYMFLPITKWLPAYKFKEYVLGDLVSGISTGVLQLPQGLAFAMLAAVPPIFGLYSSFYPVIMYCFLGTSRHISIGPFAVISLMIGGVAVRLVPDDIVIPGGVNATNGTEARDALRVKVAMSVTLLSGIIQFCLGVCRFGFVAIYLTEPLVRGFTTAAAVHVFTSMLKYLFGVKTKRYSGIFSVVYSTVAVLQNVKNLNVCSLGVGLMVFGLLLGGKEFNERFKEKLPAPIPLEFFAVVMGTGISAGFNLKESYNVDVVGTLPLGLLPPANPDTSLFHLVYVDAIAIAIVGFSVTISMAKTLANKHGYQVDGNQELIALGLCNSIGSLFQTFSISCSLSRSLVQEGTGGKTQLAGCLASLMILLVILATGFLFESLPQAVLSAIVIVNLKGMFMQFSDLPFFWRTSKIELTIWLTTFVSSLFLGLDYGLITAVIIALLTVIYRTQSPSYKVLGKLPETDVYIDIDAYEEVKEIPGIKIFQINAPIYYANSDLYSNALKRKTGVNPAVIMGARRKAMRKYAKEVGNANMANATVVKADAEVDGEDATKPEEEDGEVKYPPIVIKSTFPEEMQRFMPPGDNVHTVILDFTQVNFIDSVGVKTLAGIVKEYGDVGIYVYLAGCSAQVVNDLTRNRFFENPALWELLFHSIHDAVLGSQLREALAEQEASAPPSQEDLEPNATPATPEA

O=C(O)c1ccccc1O [salicylate]
effect on NLC at 10 mM [1]: The effect of salicylate on the NLC of WT (left) and S398A-HgPres (right)
Kd [2]: 7.08 mM
